The text below walks through data of patent US20070149593A1 (Alcon, Inc., priority 2005, published 2007).

The subject of the experiment is FGFR. Briefly: Kinase inhibition in cell-free enzymatic assay, FGFR. Conditions: 1 mM ATP. Format: biochemical.

Regarding `Cc1ccc(F)c(NC(=O)Nc2ccc(-c3cccc4[nH]nc(N)c34)cc2)c1` [RTKi, N-[4-(3-amino-1H-indazol-4-yl)phenyl]-N′-(2-fluoro-5-methylphenyl)urea], the IC50 was greater than 12.5 µM.
